Measurements reported in US20090117563A1, “Identification of TRPML3 (MCOLN3) as a Salty Taste Receptor and Use in Assays for Identifying Taste (Salty) Modulators and/or Therapeutics that Modulate Sodium Transport, Absorption or Excretion and/or Aldosterone and/or Vasopressin Production or Release” (priority 2007, published 2009).

Molecular target: T1, human TRPML3 (Homo sapiens, UniProt Q8TDD5)
T1 construct: expressed in transfected cells
T1 sequence (Q8TDD5 1-553): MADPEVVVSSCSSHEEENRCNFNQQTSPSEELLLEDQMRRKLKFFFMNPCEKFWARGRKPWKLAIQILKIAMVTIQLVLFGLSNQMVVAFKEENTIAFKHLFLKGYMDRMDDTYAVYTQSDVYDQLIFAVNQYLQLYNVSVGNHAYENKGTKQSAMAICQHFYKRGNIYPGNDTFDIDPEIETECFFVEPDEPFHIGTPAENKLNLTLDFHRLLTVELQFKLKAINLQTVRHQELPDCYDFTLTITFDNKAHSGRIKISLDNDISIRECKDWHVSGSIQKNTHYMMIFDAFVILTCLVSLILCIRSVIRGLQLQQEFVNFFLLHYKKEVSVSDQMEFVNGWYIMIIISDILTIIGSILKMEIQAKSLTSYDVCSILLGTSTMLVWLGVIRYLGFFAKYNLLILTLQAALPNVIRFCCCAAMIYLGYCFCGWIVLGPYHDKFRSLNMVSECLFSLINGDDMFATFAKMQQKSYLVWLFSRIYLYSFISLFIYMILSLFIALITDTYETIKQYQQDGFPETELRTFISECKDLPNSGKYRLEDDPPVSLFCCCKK
Assay: Two-electrode voltage clamp in oocytes injected with human TRPML3 cRNA
Type: cell-based
Conditions: 300 uM gadolinium (GdCl3) solution; −100 to +60 mV
Experimental: Twenty-four to forty-eight hours following microinjection of 10-25 ng human TRPML3 cRNA, TRPML3 function is measured in oocytes using the two-electrode voltage clamp technique on an OpusXpress 6000A parallel oocyte voltage clamp system (MDS Analytical Technologies). The two-electrode voltage clamp technique is an electrophysiology method that measures the macroscopic electrical current flowing across the entire oocyte membrane though protein channels (Stuhmer, Methods in Enzymology (1992) 207: 319-339). Oocytes are impaled with a voltage-sensing electrode and a current-sensing electrode; the voltage, or potential difference across the oocyte membrane, is clamped to a particular value using the voltage-sensing electrode and the current, or the flow of ions across the oocyte membrane, required to maintain that voltage is measured using the current-sensing electrode. […]
If the compound functions as a TRPML3 enhancer, the current passing through TRPML3 channels in the oocyte membrane increases (becomes more negative). […] To quantitate the effect of a compound on TRPML3 function, the following formula is used: […]
This value corresponds to the magnitude of the current change due to compound divided by the magnitude of the current change due to NMDG multiplied by −100%. […] All four oocytes expressed TRPML3, as evidenced by the inhibitory effect of NMDG on measured oocyte currents. […]

## [Cl][Gd]([Cl])[Cl] [gadolinium, gadolinium chloride]
  effect on TRPML3 current and slope of the I/V curve: blocks TRPML3 current and decreases the slope of the I/V curve
